For test [1], the target named is PI3Kδ (p110δ/p85α) Recombinant Human Protein (Homo sapiens (Human), UniProt O00329). As to the kind of experiment: PI3Kδ Scintillation Proximity Assay. The test is classed as biochemical. The settings on record: 20 μM PIP2, 2 μM ATP, 3.4 nM PI3Kδ, 120 min; read-out: PI3K-delta SPA IC50.
Test [2] concerns the target PI3Kγ (p110γ) Recombinant Human Protein (Homo sapiens (Human), UniProt P48736). As to the kind of experiment: PI3K-γ Scintillation Proximity Assay. The following applies: 20 μM PIP2, 2 μM ATP, 13 nM PI3Kγ, 120 min; read-out: PI3K-gamma SPA IC50. It is filed as biochemical. In a few lines:
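Recombinant human p110γ assayed at room temperature in 20 mM MOPS pH 6.7, 10 mM MgCl2, 5 mM DTT, 0.03% CHAPS, 2% DMSO, with 20 μM PIP2 and 2 μM ATP plus [γ-33P]ATP. Product captured on WGA SPA beads overnight and counted; IC50 fitted from % of solvent-control activity versus log inhibitor concentration.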
On the technique in general: SPA uses beads or plates that emit light when radiolabelled molecules are held near them.

Test [3] deals with Phosphorylated Ribosomal Protein S6 (RPS6). As to the kind of experiment: THP-1 RPS6 ELISA Assay. It is filed as cell-based, Human. The following applies: THP-1 cells, serum starved, 2 hours with compound, 10 nM MCP-1 for 15 minutes; read-out: THP p-RPS6 ELISA IC50. Here is the method: To measure the Phosphorylated Ribosomal Protein S6 (RPS6) in cell lysates, THP-1 cells (Human Acute Monocytic Leukemia) are purchased from ATCC (Manassas, Va.) and maintained in RPMI with 10% FBS (Gibco/Life Technologies, Carlsbad, Calif.). For the assay, THP-1 cells are serum starved overnight in RPMI, then plated in RPMI (2×10^5 cells/well in 90 μL) into 96-well flat-bottom tissue culture treated plates (Corning, Corning, N.Y.), in the presence or absence of a concentration range of test compounds. Covered plates are incubated for 2 hours at 37° C., 5% CO2 then treated with or without 10 nM MCP-1 (MYBioSource, San Diego, Calif.) for 15 minutes at 37° C., 5% CO2. Plates are centrifuged at 1600 RPM and supernatants are removed. Cells are lysed in Lysis Buffer (Cell Signaling, Danvers, Mass.) with Protease Inhibitor (Calbiochem/EMD, Germany), PMSF (Sigma, St Louis Mo.), HALTS (Thermo Fisher, Rockford, Ill.) for 30 min on wet ice. Cell lysates are frozen at −80° C. before testing. The lysates are tested in the Human/Mouse/Rat Phospho-RPS6 ELISA (R&D Systems, Inc. Minn, Minn.). The plate is measured using a microplate reader (SpectraMax M5-Molecular Devices, LLC Sunnyvale, Calif.) set to 450 nm with a wavelength correction of 540. […]

Sequence of PI3Kδ (p110δ/p85α) Recombinant Human Protein (O00329 whole entry): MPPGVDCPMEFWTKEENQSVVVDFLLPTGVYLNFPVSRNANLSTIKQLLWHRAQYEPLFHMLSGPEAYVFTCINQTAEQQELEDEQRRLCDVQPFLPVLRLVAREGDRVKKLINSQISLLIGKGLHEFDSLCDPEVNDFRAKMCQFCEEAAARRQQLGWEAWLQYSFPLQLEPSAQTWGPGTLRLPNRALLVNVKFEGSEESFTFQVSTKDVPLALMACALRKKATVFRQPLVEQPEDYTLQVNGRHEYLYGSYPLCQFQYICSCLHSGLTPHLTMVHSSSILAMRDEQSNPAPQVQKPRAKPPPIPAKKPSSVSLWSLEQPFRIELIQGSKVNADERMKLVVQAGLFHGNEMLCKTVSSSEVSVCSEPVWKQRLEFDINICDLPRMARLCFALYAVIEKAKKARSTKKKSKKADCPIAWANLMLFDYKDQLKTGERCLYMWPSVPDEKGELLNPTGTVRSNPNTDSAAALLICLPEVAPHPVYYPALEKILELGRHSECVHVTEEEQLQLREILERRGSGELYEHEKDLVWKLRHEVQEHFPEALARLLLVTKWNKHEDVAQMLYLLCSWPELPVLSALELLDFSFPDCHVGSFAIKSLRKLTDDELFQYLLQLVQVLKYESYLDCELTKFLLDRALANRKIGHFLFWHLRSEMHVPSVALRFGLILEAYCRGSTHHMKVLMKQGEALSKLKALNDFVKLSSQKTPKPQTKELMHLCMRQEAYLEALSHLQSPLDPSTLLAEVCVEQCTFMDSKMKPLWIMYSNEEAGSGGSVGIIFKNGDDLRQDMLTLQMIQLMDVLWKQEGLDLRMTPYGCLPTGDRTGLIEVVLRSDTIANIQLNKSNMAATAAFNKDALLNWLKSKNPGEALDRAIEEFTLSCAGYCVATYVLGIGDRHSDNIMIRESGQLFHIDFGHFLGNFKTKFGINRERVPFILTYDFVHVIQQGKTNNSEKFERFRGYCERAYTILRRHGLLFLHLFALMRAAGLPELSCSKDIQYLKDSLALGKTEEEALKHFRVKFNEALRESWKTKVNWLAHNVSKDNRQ
Sequence of PI3Kδ (p110δ/p85α) Recombinant Human Protein (P27986 whole entry partner): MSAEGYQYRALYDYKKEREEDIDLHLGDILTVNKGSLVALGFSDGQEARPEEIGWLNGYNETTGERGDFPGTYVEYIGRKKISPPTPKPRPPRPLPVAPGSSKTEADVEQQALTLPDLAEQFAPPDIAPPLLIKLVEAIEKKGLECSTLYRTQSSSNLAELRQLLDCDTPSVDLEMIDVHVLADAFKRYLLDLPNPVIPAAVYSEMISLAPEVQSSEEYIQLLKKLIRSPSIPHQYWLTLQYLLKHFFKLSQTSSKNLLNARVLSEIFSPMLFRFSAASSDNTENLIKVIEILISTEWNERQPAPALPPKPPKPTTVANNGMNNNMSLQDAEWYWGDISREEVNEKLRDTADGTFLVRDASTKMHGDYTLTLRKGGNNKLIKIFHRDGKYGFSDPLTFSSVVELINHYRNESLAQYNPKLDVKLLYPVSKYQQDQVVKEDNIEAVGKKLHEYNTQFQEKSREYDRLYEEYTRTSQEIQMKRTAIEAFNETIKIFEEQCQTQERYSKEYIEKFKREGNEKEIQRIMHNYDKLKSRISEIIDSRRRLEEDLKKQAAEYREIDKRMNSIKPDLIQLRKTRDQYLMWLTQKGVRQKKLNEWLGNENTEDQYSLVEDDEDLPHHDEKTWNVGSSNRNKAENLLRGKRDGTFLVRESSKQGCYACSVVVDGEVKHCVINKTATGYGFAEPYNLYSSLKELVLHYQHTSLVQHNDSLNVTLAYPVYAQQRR
Sequence of PI3Kγ (p110γ) Recombinant Human Protein (P48736 whole entry): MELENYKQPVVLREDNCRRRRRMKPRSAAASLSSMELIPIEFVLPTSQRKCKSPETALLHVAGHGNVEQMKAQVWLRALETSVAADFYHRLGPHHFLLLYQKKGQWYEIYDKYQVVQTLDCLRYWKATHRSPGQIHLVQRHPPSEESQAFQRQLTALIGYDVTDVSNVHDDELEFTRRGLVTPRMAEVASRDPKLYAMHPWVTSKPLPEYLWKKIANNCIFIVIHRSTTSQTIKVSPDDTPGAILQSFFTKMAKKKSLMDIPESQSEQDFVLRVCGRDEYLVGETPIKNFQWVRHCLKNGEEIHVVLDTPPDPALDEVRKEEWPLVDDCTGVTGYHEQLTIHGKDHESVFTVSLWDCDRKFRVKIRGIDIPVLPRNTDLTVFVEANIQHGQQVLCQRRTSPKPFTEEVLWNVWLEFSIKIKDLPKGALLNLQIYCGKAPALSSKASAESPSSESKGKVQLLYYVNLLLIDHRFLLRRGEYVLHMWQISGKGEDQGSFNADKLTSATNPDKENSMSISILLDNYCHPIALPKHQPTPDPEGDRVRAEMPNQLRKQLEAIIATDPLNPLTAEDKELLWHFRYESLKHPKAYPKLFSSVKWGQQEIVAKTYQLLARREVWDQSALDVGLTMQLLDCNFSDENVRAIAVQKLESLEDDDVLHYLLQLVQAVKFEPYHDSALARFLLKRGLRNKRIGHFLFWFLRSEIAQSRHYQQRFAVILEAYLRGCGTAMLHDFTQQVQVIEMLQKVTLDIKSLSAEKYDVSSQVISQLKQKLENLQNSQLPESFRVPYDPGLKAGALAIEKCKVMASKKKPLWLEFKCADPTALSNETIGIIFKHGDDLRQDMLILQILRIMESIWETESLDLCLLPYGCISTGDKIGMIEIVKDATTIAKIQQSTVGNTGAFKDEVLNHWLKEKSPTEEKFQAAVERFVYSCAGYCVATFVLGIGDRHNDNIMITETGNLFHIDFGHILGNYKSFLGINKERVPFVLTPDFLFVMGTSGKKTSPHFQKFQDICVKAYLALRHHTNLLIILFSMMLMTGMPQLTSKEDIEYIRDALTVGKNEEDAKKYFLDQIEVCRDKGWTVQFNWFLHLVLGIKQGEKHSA

Turning to `CCS(=O)(=O)Nc1cc(-c2ccc3nc(-c4nc(C)c(C)[nH]4)oc3c2)cnc1OC` [Example 65, N-(5-(2-(4,5-Dimethyl-1H-imidazol-2-yl)benzo[d]oxazol-6-yl)-2-methoxypyridin-3-yl)ethanesulfonamide bis(trifluoroacetate)], the IC50 in test [1] and in test [2] was less than 250 nM each time.

Consider `CCS(=O)(=O)Nc1cc(-c2ccc3nc(-c4nc5c([nH]4)CCCC5)oc3c2)cnc1OC` [Example 66, N-(2-Methoxy-5-(2-(4,5,6,7-tetrahydro-1H-benzo[d]imidazol-2-yl)benzo[d]oxazol-6-yl)pyridin-3-yl)ethanesulfonamide], for which the IC50 in test [1] and in test [2] was less than 250 nM throughout.

As to `Cc1nc(-c2nc3ccc(-c4cncc(C(O)C(F)(F)F)c4)cc3o2)[nH]c1C` (stereo not shown) [Example 67, 1-(5-(2-(4,5-Dimethyl-1H-imidazol-2-yl)benzo[d]oxazol-6-yl)pyridin-3-yl)-2,2,2-trifluoroethanol bis(trifluoroacetate)], the IC50 in test [1] and in test [2] was less than 250 nM each time.

As for `OC(c1cncc(-c2ccc3nc(-c4nc5c([nH]4)CCCC5)oc3c2)c1)C(F)(F)F` (stereo not shown) [Example 68, 2,2,2-Trifluoro-1-(5-(2-(4,5,6,7-tetrahydro-1H-benzo[d]imidazol-2-yl)benzo[d]oxazol-6-yl)pyridin-3-yl)ethanol], the IC50 in test [1] and in test [2] was less than 250 nM in each case.

Consider `COc1cc(-c2ccc3nc(-c4nc5ccccc5[nH]4)oc3c2)cnc1F` [Example 69, 2-(1H-Benzo[d]imidazol-2-yl)-6-(6-fluoro-5-methoxypyridin-3-yl)benzo[d]oxazole bis(trifluoroacetate)], for which the IC50 is not below 5000 nM in test [1] and less than 250 nM in test [2].

On to `Fc1ncc(-c2ccc3nc(-c4nc5ccccc5[nH]4)oc3c2)cn1` [Example 70, 2-(1H-Benzo[d]imidazol-2-yl)-6-(2-fluoro-pyrimidin-5-yl)benzo[d] oxazole bis(trifluoroacetate)], for which the results for the IC50 in test [1] and in test [2] were not below 5000 nM and less than 1000 nM, respectively.

On to `O=C(O)Cc1cncc(-c2ccc3nc(-c4nc5ccccc5[nH]4)oc3c2)c1` [Example 71, 2-(5-(2-(1H-Benzo [d]imidazol-2-yl)benzo[d]oxazol-6-yl)pyridin-3-yl)acetic acid], for which the IC50 in test [1] is less than 5000 nM; in test [2], less than 1000 nM.

On to `CP(C)(=O)c1cncc(-c2ccc3nc(-c4nc5ccccc5[nH]4)oc3c2)c1` [Example 72, 2-(1H-Benzo[d]imidazol-2-yl)-6-(5-(dimethyl-phosphoryl)pyridin-3-yl)benzo[d]oxazole bis(trifluoroacetate)], for which the results for the IC50 in test [1] and in test [2] were less than 5000 nM and less than 250 nM, respectively.

In the case of `CCS(=O)(=O)N(C)c1cncc(-c2ccc3nc(-c4nc5ccccc5[nH]4)oc3c2)c1` [Example 73, N-(5-(2-(1H-Benzo [d]imidazol-2-yl)benzo [d]oxazol-6-yl)pyridin-3-yl)-N-methylethanesulfonamide bis(trifluoroacetate)], the IC50 in test [1] was less than 5000 nM; in test [2], less than 250 nM.

On to `OC(c1cncc(-c2ccc3nc(-c4nc5ccccc5[nH]4)oc3c2)c1)C(F)(F)F` (stereo not shown) [Example 74, 1-(5-(2-(1H-Benzo [d]imidazol-2-yl)benzo [d]oxazol-6-yl)pyridin-3-yl)-2,2,2-trifluoroethanol bis(trifluoroacetate)], for which the IC50 in test [1] and in test [2] was less than 250 nM in each case.

Regarding `O=S(=O)(CC(F)(F)F)Nc1cc(-c2ccc3nc(-c4nc5ccccc5[nH]4)oc3c2)cnc1F` [Example 75, N-(5-(2-(1H-Benzo [d]imidazol-2-yl)benzo[d]oxazol-6-yl)-2-fluoropyridin-3-yl)-2,2,2-trifluoro-ethanesulfonamide bis(trifluoroacetate)], the IC50 in test [1] and in test [2] was less than 250 nM throughout.

Regarding `Cc1ncc(-c2ccc3nc(-c4nc5ccccc5[nH]4)oc3c2)cc1NS(=O)(=O)CC(F)(F)F` [Example 76, N-(5-(2-(1H-Benzo [d]imidazol-2-yl)benzo[d]oxazol-6-yl)-2-methylpyridin-3-yl)-2,2,2-trifluoro-ethanesulfonamide bis(trifluoroacetate)], the IC50 in test [1] and in test [2] was less than 250 nM in each case.

Regarding `O=S(=O)(CC(F)(F)F)Nc1cncc(-c2ccc3nc(-c4nc5ccccc5[nH]4)oc3c2)c1` [Example 77, N-(5-(2-(1H-Benzo [d]imidazol-2-yl)benzo[d]oxazol-6-yl)pyridin-3-yl)-2,2,2-trifluoro-ethanesulfonamide bis(trifluoroacetate)], the IC50 was less than 1000 nM in test [1] and less than 250 nM in test [2].

Consider `CCS(=O)(=O)Nc1cc(-c2ccc3nc(-c4nc5ccccc5[nH]4)oc3c2)ncc1F` [Example 78, N-(2-(2-(1H-Benzo [d]imidazol-2-yl)benzo[d]oxazol-6-yl)-5-fluoropyridin-4-yl) ethanesulfonamide bis(trifluoroacetate)], for which the IC50 in test [1] and in test [2] was less than 5000 nM throughout.

With `CCS(=O)(=O)Nc1cc(-c2ccc3nc(-c4nc5ccccc5[nH]4)oc3c2)cnc1OC` [Example 79, N-(5-(2-(1H-Benzo [d]imidazol-2-yl)benzo[d]oxazol-6-yl)-2-methoxypyridin-3-yl)ethanesulfonamide bis(trifluoroacetate)], the IC50 in test [1] and in test [2] was less than 250 nM throughout.

In the case of `CCS(=O)(=O)Nc1cc(-c2ccc3nc(-c4nc5ccccc5[nH]4)oc3c2)cc(F)c1OC` [Example 80, N-(5-(2-(1H-Benzo [d]imidazol-2-yl)benzo[d]oxazol-6-yl)-3-fluoro-2-methoxyphenyl) ethanesulfonamide bis(trifluoroacetate)], the IC50 in test [1] is less than 5000 nM; in test [2], less than 250 nM.

For the molecule “N-(5-(2-(1H- Benzo[d]imidazol-2- yl)benzo[d]oxazol- 6-yl)pyridin-3- yl)ethanesulfonamide [Example 18]”, the IC50 in test [3] is not below 5000 nM; in test [1], less than 1000 nM.

The values are drawn from patent US9586949B2, “Aza-heteroaryl compounds as PI3K-gamma inhibitors” (Incyte Corporation, priority 2015, dated 2017).
